Here are results for two compounds from patent EP2679243B1, “Co-precipitate of one or more stilbene polyphenols in lamellar anionic solids, it's applications and related preparation method” (Fioretti, Bernard, priority 2012, dated 2014).

Series [1] is described as follows: Solubility in gastric fluid (indirect weighing and UV dosage). The series is classed as physicochemical. As to conditions: gastric fluid (FU; fluid mimicking the gastric fluid), simulated gastric fluid, thermodynamic from solid, gastric fluid pH 1.2, FU. How it is done: Solution 1is prepared by dissolving 258.3 mg of AlCl3 * 6H2O and 508.3 mg of MgCl2 * 6H2O in 18 mL of deionized water. […] A hydro-alcoholic solution is obtained by mixing the first and second solution and keeping it in a dark environment, agitated and in nitrogen flow. To this solution, under nitrogen flow, it has to be added 10 ml of NaOH solution 1 M up to a pH between 10-11. Solid precipitated is left to be digested for 15 minutes and then it is separated through centrifugation. The solid recovered, has to be washed 2 times using 30 ml of deionized water and finally using 20 ml of ethanol. Finally the solid recovered is dryed out at 50 °C. […] Width of signals is due to low crystallinity of hydrotalcitic matrix that can be ascribed to an amorphous phase. […] The presence of resveratrol is confirmed by DTA signal (black trace) in which it is possible to observe a sequence of exhotermic processes due to resveratrol degradation. […] Little changes are observed after a 120 minute irradiation at 340 nm (Figure 3C. black trace: not irradiated; red trace: irradiated). […] Dissolution tests in fluids mimicking the gastric fluid (pH: 1-2, FU) at 37 °C, stirred and characterized by a blade rotation speed equal to 60 rotation/min in not sink conditions.

For series [2] the following is noted: cited from earlier work.
For series [3] the following is noted: cited from earlier work. The source holds these as a separate data set.
A short description of series [4]: Photostability under irradiation at 340 nm (absorption spectra). Type of series: physicochemical. An excerpt: • Figure 1. Characterization of the product obtained from the co-precipitation process according to the invention described in example 1. […] Figure 1B. The thermogravimetric analysis defines weight percentage of resveratrol load in co-precipitate. […] Characterization of the product obtained from the co-precipitation process according to the invention described in example 2. Figure 2A. […] Figure 2B. The thermogravimetric analysis to calculate weight percentage of resveratrol in co-precipitate. […] Figure 2C. […] Samples are prepared in aqueous solution. […] Column Luna Phenomenex RP-18, eluents A)-H2O + TFA 0.1% e B- MeCN (Gradient: 5min: 5% B; 20 min: until 95% B; 5 min: up to 5% B, Temperature: 25°C, flow speed of eluent 1.0 mL/min, detector: DAD (190-400 nm)) • Figure 3. […] A) Absorption spectrum of crystalline resveratrol. […] The dissolution rate is measured to acid gastric buffer (pH 1.2, XII italian FU) in non-sink condition at a temperature of 37°C and while being agitated (agitation 60 rotation/minute).
Solution 1is prepared by dissolving 258.3 mg of AlCl3 * 6H2O and 508.3 mg of MgCl2 * 6H2O in 18 mL of deionized water. […] A hydro-alcoholic solution is obtained by mixing the first and second solution and keeping it in a dark environment, agitated and in nitrogen flow. To this solution, under nitrogen flow, it has to be added 10 ml of NaOH solution 1 M up to a pH between 10-11. […]

For series [5] the following is noted: compared to resveratrol; cited from earlier work.

In brackets after ≈: the same amount, converted by molar mass.

The solubility is the dissolved amount per volume that the medium holds. A lower solubility goes with a poorly soluble substance. What is called pKa is the negative logarithm of the acid dissociation constant. Consider `Oc1ccc(/C=C/c2cc(O)cc(O)c2)cc1` [resveratrol, trans-resveratrol], for which, in series [1], the solubility was 44 µg/mL (≈ 193 µM). In series [2], the solubility in water entry is recorded as “about 30 mg/l”. Further, in series [3], the pKa is on record as ~10. Further, the photostability result is listed as “photo-instability” in series [4] (aqueous solution, 30 minute irradiation at 340 nm) and “photo-degraded” in series [4] (solid, 60 minute irradiation at 340 nm).
With resveratrol-L-arginine salt, the maximum plasma peak entry in series [5] is “increased”.
